This is an account of results in paper PMC6630221, “Semi-Synthesis and Evaluation of Sargahydroquinoic Acid Derivatives as Potential Antimalarial Agents” (Medicines, 2019).

The test system of data set [1] is chloroquine-resistant Gambian FCR-3 strain of P. falciparum. Kind of data set: Antiplasmodial tritiated hypoxanthine incorporation assay. It is filed as cell-based, Plasmodium falciparum. The following applies: for IC50: Plasmodium falciparum, FCR3, chloroquine-resistant FCR-3 strain, 0.5% parasitaemia, 1% haematocrit, triplicate; for Selectivity Index: ratio of cytotoxicity IC50 (MDA-MB-231) to antimalarial IC50 (FCR-3); for antiplasmodial activity (in words): FCR-3 strain of P. falciparum. The protocol:
All compounds were tested in triplicate against the chloroquine-resistant Gambian FCR-3 strain of P. falciparum. The in vitro erythrocytic stage of the parasite was maintained using the method outlined by Trager and Jensen. The antimalarial activity of the compounds was determined using the tritiated hypoxanthine incorporation assay using a 0.5% parasitaemia and 1% haematocrit. All assays were carried out using untreated parasites and uninfected red blood cells as controls. The concentration that inhibited 50% parasite growth (IC50 value) was determined from the log sigmoid dose response curve using GraphPad Prism. Quinine was used as the reference antiplasmodial agent. The selectivity index for the compounds was determined from the ratio of cytotoxicity IC50 to antimalarial IC50.

Data set [2] has as its system MDA-MB-231 breast carcinoma cells. Kind of data set: Cytotoxicity WST-1 assay. The settings on record: MDA-MB-231 cells; for IC50: Homo sapiens, WST-1, triplicate. It is filed as cell-based. On the procedure: All compounds were tested in triplicate against MDA-MB-231 breast carcinoma cells, which were purchased from the ATCC (Catalogue number HTB-26, Manassas, VA, USA). The cytotoxicity of the compounds was determined using the WST-1 assay method (Roche). The cells were treated with a range of concentrations of the test compounds or vehicle control (DMSO). Cells treated with DMSO were considered to represent 100% viability and the viability of cells at each dose was represented relative to this value. The concentration resulting in a decrease of cell viability to 50% was calculated from the linear portion of the dose response curve.
Background: Tetrazolium dyes change colour on reduction, which living cells bring about.

Data set [3] relates to Plasmodium falciparum (D10). Also noted: method as in PMID 19227833. The settings on record: chloroquine sensitive strain D10 of P. falciparum; ref [5]; cited from earlier work.
Where [4] appears, read: listed as sarganaphthoquinoic acid (10).

On to `C=C[C@H]1C[N@@]2CC[C@H]1C[C@H]2[C@H](O)c1ccnc2ccc(OC)cc12` [Quinine, reference compound], for which the IC50 (in general, the concentration that gives 50% inhibition) in data set [1] turned out to be 0.17 µM.
On to `CC(C)=CCC/C(=C/CC/C(C)=C/CC/C(C)=C/Cc1cc(O)cc(C)c1O)C(=O)O` [Sargahydroquinoic acid (1), sargahydroquinoic acid], for which the values for the IC50 in data set [1], in data set [2] and in data set [3] were 38.6 µM, 70 µM and 15.2 µM, respectively. In addition, the “Selectivity Index” value in data set [1] turned out to be 1.8.
Regarding `CC(C)=CCC/C(=C/CC/C(C)=C/CC/C(C)=C/CC1=CC(=O)C=C(C)C1=O)CO` [Sargaquinol (6), sargaquinol], in data set [1], the “antiplasmodial activity (in words)” value is “decreased antiplasmodial activity”, the half-maximal inhibitory concentration (IC50) is 93.1 µM and the “Selectivity Index” value is 1.1. This compound registered an IC50 in data set [2] of 99 µM.
For `CC(=O)Oc1cc(C)c(OC(C)=O)c(C/C=C(\C)CC/C=C(\C)CC/C=C(/CCC=C(C)C)C(=O)O)c1` [Sargahydroquinoic acid di-acetate (2), Diacetyl Sargahydroquinoic Acid], the IC50 in data set [1] turned out to be 84.3 µM; in data set [2], 286 µM. For the same compound, the “Selectivity Index” value in data set [1] came out at 3.4.
As for `CC(C)=CCC/C(=C/CC/C(C)=C/CCC1(C)C=Cc2cc(O)cc(C)c2O1)C(=O)O` (stereo not drawn) [Sargachromenol (7), sargachromenol], in data set [1], 115 µM corresponded to half-maximal inhibition (IC50) and the “Selectivity Index” value is reported as 0.5. In data set [2], this compound returned a concentration for half-maximal inhibition (IC50) of 56 µM.
`CC(C)=CCC/C(=C/CC/C(C)=C/CC/C(C)=C/CC1=CC(=O)C=C(C)C1=O)C(=O)O` [Sargaquinoic acid (3), sargaquinoic acid]: in data set [1], the “antiplasmodial activity (in words)” value is on record as “most promising antiplasmodial activity”, the half-inhibitory concentration (IC50) is 10.8 µM and the “Selectivity Index” value is on record as 60.9. Moreover, in data set [2], half-maximal inhibition (IC50) required 658 µM and the “cytotoxicity (in words)” value is listed as “low cytotoxicity”. The 50% inhibitory concentration (IC50) in data set [3] was 12 µM.
Take `CC(C)=CCC/C(=C/CC/C(C)=C/CCc1ccc2c(c1)C(=O)C=C(C)C2=O)C(=O)O` [Sarganaphthoquinone (10), sarganaphthoquinoic acid]: the “antiplasmodial activity (in words)” value was “most promising antiplasmodial activity” in data set [1] and “good antiplasmodial activity” in data set [1] (setting [4]). The IC50 was 5.4 µM in data set [1] and 2410 µM in data set [2]. The “cytotoxicity (in words)” value in data set [2] is “low cytotoxicity”; in data set [2] (setting [4]), “almost non-toxic”.
`CC(C)=CCC/C(C=O)=C\CC/C(C)=C/CC/C(C)=C/CC1=CC(=O)C=C(C)C1=O` [10E-sargaquinal (9), 10’E-sargaquinal]: in data set [1], the “antiplasmodial activity (in words)” value is “decreased antiplasmodial activity”. In addition, the IC50 in data set [1] is 104 µM; in data set [2] it was 69 µM; in data set [3] it was 2 µM. In addition, the “Selectivity Index” value in data set [1] is 0.7.
In the case of `CC(C)=CCC/C(=C/CC/C(C)=C/CCC1(C)C=Cc2cc(O)cc(C)c2O1)CO` (stereo not drawn) [Sargachromendiol (8), sargachromendiol], in data set [1], the midpoint of inhibition, the IC50, lay at 34.2 µM and the “Selectivity Index” value is 5.5. For the same compound, in data set [2], inhibition was half-maximal at 187 µM (IC50).
In the case of `CC(C)=CCC/C(C=O)=C/CC/C(C)=C/CC/C(C)=C/CC1=CC(=O)C=C(C)C1=O` [10Z-sargaquinal (4), 2’E,6’E,10’Z-sargaquinal], in data set [1], the “antiplasmodial activity (in words)” value is “decreased antiplasmodial activity”, it took 72.6 µM to reach half-maximal inhibition (IC50) and the “Selectivity Index” value was 2.9. Also, half-maximal inhibition in data set [2] (IC50) required 211 µM.
`COC(=O)/C(=C\CC/C(C)=C/CC/C(C)=C/CC1=CC(=O)C=C(C)C1=O)CCC=C(C)C` [Sargaquinoic acid methyl ester (5), sargaquinoic acid methyl ester]: in data set [1], inhibition was half-maximal at 8.2 µM (IC50) and the “Selectivity Index” value is recorded as 8.6. In addition, half-maximal inhibition in data set [2] (IC50) was put at 70 µM.
